Columns and labels:
[1] = target: T1, Solute carrier organic anion transporter family member 1A1 (Rattus norvegicus, UniProt P46720); assay: (§1) TP_TRANSPORTER: inhibition of E1S uptake (E1S: 0.05 uM, GL: 100 uM) in Xenopus laevis oocytes; type: functional, cell-based; design: scale not given: the % may be the effect or the level left; conditions: oocyte
T1 sequence (P46720 whole entry): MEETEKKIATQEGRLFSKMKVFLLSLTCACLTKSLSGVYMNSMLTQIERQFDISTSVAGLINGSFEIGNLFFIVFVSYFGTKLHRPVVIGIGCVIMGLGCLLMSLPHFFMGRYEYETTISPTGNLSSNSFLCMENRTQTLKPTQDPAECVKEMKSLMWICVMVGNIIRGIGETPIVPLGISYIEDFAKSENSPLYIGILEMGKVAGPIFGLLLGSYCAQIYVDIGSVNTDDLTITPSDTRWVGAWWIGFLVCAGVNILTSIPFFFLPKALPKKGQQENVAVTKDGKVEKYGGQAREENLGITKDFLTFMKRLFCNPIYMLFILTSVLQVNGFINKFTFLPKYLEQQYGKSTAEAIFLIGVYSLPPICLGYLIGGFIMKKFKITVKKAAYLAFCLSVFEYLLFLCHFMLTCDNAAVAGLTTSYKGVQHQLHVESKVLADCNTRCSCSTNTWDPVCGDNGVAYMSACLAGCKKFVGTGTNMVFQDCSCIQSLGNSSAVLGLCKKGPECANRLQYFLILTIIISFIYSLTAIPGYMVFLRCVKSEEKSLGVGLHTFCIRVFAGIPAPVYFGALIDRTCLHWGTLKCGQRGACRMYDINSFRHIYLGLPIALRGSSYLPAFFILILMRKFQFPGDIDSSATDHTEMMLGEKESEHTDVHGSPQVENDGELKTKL

[2] = target: T2, Solute carrier organic anion transporter family member 1B1 (Homo sapiens, UniProt Q9Y6L6); assay: (§2) TP_TRANSPORTER: inhibition of E1S uptake in Xenopus laevis oocytes; type: functional, cell-based, Oocyte
T2 sequence (Q9Y6L6 whole entry): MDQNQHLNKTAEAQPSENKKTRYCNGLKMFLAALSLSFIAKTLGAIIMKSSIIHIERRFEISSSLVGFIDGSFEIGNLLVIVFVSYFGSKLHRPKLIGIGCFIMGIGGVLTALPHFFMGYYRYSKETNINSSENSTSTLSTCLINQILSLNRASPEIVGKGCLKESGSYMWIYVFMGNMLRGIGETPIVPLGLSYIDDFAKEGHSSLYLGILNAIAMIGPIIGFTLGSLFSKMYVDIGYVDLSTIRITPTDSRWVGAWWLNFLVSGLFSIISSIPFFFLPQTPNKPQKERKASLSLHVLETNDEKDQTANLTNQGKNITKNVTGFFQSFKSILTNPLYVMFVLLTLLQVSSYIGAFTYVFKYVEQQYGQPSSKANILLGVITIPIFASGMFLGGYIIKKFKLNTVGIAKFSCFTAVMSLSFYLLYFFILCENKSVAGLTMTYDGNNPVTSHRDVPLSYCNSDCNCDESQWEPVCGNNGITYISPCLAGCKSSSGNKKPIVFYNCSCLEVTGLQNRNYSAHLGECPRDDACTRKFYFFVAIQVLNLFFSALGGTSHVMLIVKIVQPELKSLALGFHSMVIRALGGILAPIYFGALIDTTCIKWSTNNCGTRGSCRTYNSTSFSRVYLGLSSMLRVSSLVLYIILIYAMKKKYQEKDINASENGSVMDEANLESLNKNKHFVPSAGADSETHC

[3] = target: T3, Solute carrier organic anion transporter family member 1B2 (Rattus norvegicus, UniProt Q9QZX8); assay: as §2; type: functional, cell-based, Oocyte
T3 sequence (Q9QZX8 whole entry): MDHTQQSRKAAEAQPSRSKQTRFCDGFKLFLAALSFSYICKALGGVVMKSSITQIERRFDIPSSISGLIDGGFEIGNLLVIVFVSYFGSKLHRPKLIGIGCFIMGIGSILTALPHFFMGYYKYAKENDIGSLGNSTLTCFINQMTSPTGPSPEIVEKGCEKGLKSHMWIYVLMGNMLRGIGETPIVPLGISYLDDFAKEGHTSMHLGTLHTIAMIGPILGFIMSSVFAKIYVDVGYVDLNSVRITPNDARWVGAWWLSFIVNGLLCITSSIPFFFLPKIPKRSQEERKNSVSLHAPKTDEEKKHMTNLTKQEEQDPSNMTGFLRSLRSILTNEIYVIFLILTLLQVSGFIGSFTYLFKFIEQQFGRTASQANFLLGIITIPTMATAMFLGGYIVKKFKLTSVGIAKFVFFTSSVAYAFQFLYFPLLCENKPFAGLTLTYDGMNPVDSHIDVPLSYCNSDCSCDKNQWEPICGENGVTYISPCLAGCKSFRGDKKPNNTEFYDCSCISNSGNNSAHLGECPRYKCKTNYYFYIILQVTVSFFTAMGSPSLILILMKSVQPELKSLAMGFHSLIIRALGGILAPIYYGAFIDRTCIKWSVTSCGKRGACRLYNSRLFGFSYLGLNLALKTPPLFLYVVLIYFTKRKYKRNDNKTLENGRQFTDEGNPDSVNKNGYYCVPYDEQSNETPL

[4] = target: T4, Solute carrier organic anion transporter family member 2B1 (Homo sapiens, UniProt O94956); assay: TP_TRANSPORTER: inhibition of E1S uptake (E1S: 0.05 uM, GL: 100 uM) of Glycyrrhizic acid at a concentration of 100 u M in Xenopus laevis oocytes; type: functional, cell-based; conditions: oocyte
T4 sequence (O94956 whole entry): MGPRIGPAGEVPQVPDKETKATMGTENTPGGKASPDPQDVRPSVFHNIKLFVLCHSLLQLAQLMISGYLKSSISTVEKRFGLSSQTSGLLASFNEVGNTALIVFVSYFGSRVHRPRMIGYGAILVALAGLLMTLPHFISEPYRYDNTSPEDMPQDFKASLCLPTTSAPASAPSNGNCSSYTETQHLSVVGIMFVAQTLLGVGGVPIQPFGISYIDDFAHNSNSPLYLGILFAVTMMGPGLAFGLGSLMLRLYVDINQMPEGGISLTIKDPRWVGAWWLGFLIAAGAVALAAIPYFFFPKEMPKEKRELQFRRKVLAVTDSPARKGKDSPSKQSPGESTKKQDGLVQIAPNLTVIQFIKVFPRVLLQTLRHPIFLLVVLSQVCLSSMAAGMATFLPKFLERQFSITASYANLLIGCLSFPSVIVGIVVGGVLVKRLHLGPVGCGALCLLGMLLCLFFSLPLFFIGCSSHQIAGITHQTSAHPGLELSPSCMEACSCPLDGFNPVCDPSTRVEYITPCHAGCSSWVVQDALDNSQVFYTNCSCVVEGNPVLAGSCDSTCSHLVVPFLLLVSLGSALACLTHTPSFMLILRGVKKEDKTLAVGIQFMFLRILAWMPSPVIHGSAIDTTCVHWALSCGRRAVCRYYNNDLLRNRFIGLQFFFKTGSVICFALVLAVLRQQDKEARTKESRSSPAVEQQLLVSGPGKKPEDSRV

[5] = target: T5, Solute carrier organic anion transporter family member 1B3 (OATP1B3) (Homo sapiens, UniProt Q9NPD5); assay: as §1; type: functional, cell-based, Oocyte; design: scale not given: the % may be the effect or the level left; conditions: Xenopus laevis oocytes expressing OATP1B3, probe E1S (0.05 uM), read-out: Activity
T5 sequence (Q9NPD5 whole entry): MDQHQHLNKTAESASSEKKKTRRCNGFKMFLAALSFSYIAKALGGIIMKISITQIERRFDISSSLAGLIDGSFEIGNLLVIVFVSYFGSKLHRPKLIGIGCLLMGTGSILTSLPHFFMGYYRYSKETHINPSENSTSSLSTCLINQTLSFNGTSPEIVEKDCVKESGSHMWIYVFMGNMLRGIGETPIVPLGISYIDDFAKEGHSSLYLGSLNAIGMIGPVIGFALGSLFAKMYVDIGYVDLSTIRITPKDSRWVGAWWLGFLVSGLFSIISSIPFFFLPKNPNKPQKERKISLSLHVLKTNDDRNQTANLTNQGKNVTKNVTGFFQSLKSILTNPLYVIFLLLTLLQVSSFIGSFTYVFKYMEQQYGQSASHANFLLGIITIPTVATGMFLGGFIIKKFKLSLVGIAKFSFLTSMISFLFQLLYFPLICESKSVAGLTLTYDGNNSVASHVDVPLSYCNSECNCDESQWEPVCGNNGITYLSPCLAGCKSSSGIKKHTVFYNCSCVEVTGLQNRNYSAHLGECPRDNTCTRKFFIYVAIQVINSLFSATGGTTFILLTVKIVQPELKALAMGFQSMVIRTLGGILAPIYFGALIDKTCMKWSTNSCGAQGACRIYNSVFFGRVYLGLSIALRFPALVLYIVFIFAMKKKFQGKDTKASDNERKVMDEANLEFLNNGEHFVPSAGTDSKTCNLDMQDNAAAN

[6] = target: T6, Solute carrier organic anion transporter family member 1A5 (OATP1A5) (Rattus norvegicus, UniProt O88397); assay: as §1; type: functional, cell-based, Oocyte; design: scale not given: the % may be the effect or the level left; conditions: Xenopus laevis oocytes expressing OATP1A5, probe E1S (0.05 uM), read-out: Activity
T6 sequence (O88397 whole entry): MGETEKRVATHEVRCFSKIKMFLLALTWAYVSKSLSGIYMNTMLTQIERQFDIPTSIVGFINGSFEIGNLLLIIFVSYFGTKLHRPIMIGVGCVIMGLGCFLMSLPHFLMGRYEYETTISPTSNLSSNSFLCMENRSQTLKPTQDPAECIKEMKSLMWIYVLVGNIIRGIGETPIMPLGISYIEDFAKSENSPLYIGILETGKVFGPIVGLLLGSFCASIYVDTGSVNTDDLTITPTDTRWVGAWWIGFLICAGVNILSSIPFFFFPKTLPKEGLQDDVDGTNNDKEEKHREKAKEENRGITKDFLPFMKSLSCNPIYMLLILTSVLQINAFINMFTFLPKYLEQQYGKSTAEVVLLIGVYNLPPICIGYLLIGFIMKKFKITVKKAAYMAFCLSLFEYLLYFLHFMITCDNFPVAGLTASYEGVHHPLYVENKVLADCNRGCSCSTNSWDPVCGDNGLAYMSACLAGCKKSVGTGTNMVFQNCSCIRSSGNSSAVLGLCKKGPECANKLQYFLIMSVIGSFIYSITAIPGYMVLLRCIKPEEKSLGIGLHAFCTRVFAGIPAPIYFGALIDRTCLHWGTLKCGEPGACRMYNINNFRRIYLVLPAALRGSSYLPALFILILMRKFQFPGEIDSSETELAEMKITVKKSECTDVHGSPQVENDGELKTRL

[7] = target: T7, Solute carrier organic anion transporter family member 1A4 (OATP1A4) (Rattus norvegicus, UniProt O35913); assay: as §1; type: functional, cell-based, Oocyte; design: scale not given: the % may be the effect or the level left; conditions: Xenopus laevis oocytes expressing OATP1A4, probe E1S (0.05 uM), read-out: Activity
T7 sequence (O35913 whole entry): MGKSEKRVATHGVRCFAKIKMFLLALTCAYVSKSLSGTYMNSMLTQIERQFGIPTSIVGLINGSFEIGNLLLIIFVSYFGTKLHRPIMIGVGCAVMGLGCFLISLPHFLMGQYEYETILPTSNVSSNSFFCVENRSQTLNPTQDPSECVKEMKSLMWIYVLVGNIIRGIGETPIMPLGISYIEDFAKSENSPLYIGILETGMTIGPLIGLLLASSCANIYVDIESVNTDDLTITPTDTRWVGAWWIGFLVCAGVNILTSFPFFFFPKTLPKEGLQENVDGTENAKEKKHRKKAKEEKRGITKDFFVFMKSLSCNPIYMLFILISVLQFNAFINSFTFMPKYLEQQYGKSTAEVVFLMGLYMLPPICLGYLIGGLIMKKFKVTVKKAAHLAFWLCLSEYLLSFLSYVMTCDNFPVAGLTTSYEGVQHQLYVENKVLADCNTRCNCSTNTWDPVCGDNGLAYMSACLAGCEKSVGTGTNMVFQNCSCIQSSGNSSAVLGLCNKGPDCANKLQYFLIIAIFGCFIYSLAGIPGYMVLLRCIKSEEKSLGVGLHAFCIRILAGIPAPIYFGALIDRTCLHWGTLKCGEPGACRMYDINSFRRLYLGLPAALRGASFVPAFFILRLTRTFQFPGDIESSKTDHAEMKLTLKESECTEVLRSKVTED

[8] = target: T8, Solute carrier organic anion transporter family member 1A2 (Homo sapiens, UniProt P46721); assay: TP_TRANSPORTER: inhibition of E1S uptake (E1S: 0.05 uM, GL: 100 uM) by Glycyrrhizic acid at a concentration of 100 u M in Xenopus laevis oocytes; type: functional, cell-based; conditions: oocyte
T8 sequence (P46721 whole entry): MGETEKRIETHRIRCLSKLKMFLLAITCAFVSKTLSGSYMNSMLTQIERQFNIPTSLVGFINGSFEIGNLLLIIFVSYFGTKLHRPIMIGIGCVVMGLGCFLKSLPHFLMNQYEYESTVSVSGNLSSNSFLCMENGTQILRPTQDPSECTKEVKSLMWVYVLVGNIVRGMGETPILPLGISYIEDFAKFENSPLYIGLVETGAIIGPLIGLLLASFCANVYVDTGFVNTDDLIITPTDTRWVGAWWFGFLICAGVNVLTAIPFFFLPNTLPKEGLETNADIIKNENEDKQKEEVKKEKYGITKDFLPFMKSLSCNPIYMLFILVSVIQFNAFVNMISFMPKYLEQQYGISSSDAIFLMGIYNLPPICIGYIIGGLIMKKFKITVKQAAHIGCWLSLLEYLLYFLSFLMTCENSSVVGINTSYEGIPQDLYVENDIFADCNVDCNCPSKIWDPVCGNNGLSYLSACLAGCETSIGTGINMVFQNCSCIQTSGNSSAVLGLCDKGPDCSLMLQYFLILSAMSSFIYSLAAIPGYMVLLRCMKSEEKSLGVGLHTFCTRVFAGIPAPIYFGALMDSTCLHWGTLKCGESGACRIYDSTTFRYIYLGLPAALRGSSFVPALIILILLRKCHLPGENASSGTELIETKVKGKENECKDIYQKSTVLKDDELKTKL

[9] = target: T9, Solute carrier organic anion transporter family member 1B3 (Homo sapiens, UniProt Q9NPD5); assay: TP_TRANSPORTER: inhibition of BSP uptake in Xenopus laevis oocytes; type: functional, cell-based, Oocyte
T9 sequence (Q9NPD5 whole entry): T5 sequence (Q9NPD5 whole entry)

- Activity [1]: 52%
- Ki [2]: 15.9 µM
- Ki [3]: 6.1 µM
- Activity [4]: is not an inhibitor [-]
- activity at 100 µM [5]: 0%
- activity at 100 µM [6]: 51%
- activity at 100 µM [7]: 47%
- Activity [8]: is not an inhibitor [-]
- Ki [9]: 12.5 µM
SMILES: CC1(C)[C@@H](O[C@H]2O[C@H](C(=O)O)[C@@H](O)[C@H](O)[C@H]2O[C@@H]2O[C@H](C(=O)O)[C@@H](O)[C@H](O)[C@H]2O)CC[C@]2(C)[C@H]3C(=O)C=C4[C@@H]5C[C@@](C)(C(=O)O)CC[C@]5(C)CC[C@@]4(C)[C@]3(C)CC[C@@H]12 [GLYCYRRHIZIN]
